Data set [1] can be described thus: Stability in enzyme reaction buffer. The data set is classed as physicochemical. As to conditions: reaction buffer (50 mM Tris-HCl, pH 7.5, 30 °C). Here is the method:
To further examine the catalytic role of methyltransferase KnmF and monooxygenases KnmB1 and KnmB2 during the karnamicin assembly process, we decided to characterize their enzyme activities in vitro. For KnmF, we synthesized 28 (Fig. 3, Supplementary Figs. 111–116, and Supplementary Table 19), a putative dedicated substrate of KnmF with a trihydroxypyridine core. Subsequently, a time course analysis of the enzyme-catalyzed reaction was performed with KnmF expressed by Escherichia coli BL21 (DE3) cells (Supplementary Fig. 117) and 28. Intriguingly, immediately following the consumption of 28, a compound 30 appeared. The subsequent decrease in abundance of 30 was accompanied by the accumulation of karnamicin E1 (1) (Fig. 4a). […]
The reaction of KnmF was carried out at 30 °C in a 100 µL system containing 50 mM Tris-HCl buffer (pH 7.5), 1 mM compound 28, 2 mM SAM, and 2 μM KnmF. […] After centrifugation (10 min at 13,523×g), the supernatant was analyzed by HPLC-DAD with solvent gradient as follows: T = 0 min, 55% B; T = 13.5 min, 55% B; T = 19 min, 65% B; T = 35 min, 65% B; T = 40 min, 100% B; T = 45 min, 100% B; T = 45.1 min, 55% B; T = 51 min, 55% B (A, H2O + 0.1% CH3COOH, v/v; B, MeCN), and the column temperature was 25 °C (Analytical method B).

Data set [2] relates to KnmB1. In words: Hydrogen peroxide formation assay of KnmB1 and variants. As to conditions: 30 °C, average of 3. The data set is classed as biochemical, L. rhizosphaerae NEAU-A2. Here is the method:
Hydrogen peroxide formation assay and NADPH oxidation
The hydrogen peroxide formed from KnmB1, KnmB2 and their variants were measured using the Hydrogen Peroxide Assay Kit (Beyotime Industrial Co. Ltd, Shanghai, China)4-5. 5–100 µL of enzyme reaction mixture was added to 100 µL of working reagent (S0038-1). The mixture was incubated for 30 min at 25 °C, at which time the absorbance at 560 nm was measured by NanoDrop 2000c (Fisher Scientific). […]
(§1) Spectral data for new compounds […]
Supplementary Figure 131. H2O2 generation and NADPH oxidation for KnmB2, KnmB1 and their variants. (a) Hydrogen peroxide formation of KnmB2 and variants. […]
(b) Hydrogen peroxide formation of KnmB1 and variants. Reaction conditions: 100 µL system containing 50 mM Tris-HCl buffer (pH 7.5), 1 mM NADPH, 16 μM KnmB2, 17 μM KnmB1 or variants, 0.1 mM compound 24,1 mM SAM, and 2 […]
(1 picture or pasted object on this page, not shown here) […]
μM KnmF at 30 °C for 3h. (c) Hydrogen peroxide formation of KnmB1 and variants.
Reaction conditions: 100µL system containing 50 mM Tris-HCl buffer (pH 7.5), 0.3 mM NADPH, and 6 μM KnmB1 or variants, or 0.1 mM 24 at 30 °C for 30 min. […]
(§2) 2 μM KnmB2 or variants, or 0.1 mM substrate 24/32. […]
(§3) Source data are provided as a Source Data file. […]

For data set [3], the system named is KnmB1. In words: NADPH oxidation of KnmB1 and variants (340 nm). The data set is classed as biochemical, L. rhizosphaerae NEAU-A2. The following applies: KnmB1 + compound. Here is the method: Hydrogen peroxide formation assay and NADPH oxidation […]
NADPH detection was carried out in the cuvette by NanoDrop 2000c (Fisher Scientific). NADPH signal at 340 nm was monitored in time using 6220 M–1 cm–1 as […]
as §1
Reaction conditions: 50 mM Tris-HCl buffer (pH 7.5), 0.15 mM NADPH, and 2 μM KnmB1 or KnmB2. (e) NADPH oxidation of KnmB1 and variants. (f) NADPH oxidation of KnmB1 in the presence 24/32/36. (g) NADPH oxidation of KnmB1 and variants in the presence 24. Reaction conditions (e-g) for KnmB1 and their variants: 50 mM Tris-HCl buffer (pH 7.5), 0.15 mM NADPH, and 6 μM KnmB1 or variants, or 0.1 mM substrate 24/32/36. […]
as §2, §3

The source of these data is publication PMC9838390, “Discovery and biosynthesis of karnamicins as angiotensin converting enzyme inhibitors” (Nature Communications, 2023).

Where “and” joins values, the source holds several entries; their conditions need not be identical. Identical values can stand only once.

On to `CC(C)CCCCc1nc(-c2nc(C(N)=O)c(O)c(O)c2O)cs1` [Compound 28], for which the “stability in the reaction buffer” value in data set [1] is listed as “degraded rapidly”.
Turning to `COc1cc(-c2csc(CCCC(C)=O)n2)nc(C(N)=O)c1O` [Compound 36], the “hydrogen peroxide formation of KnmB1 (absorbance UV λ=560 nm), average value” in the data set with KnmB1 [2] (Fig. S131b, 1 mM NADPH, 17 μM KnmB1, 0.1 mM compound, 3 h) is reported as 0.0940; in the data set with KnmB1 [2] (Fig. S131c, 0.3 mM NADPH, 6 μM KnmB1, 0.1 mM compound, 30 min), 0.0678. Besides, the “NADPH oxidation of KnmB1 in the presence of compound (replicates 1, 2, 3)” value (from here on “NADPH oxidation of KnmB1 … (replicates 1, 2, 3)”) in the data set with KnmB1 [3] (Time 0) is 0.0000 µM; in the data set with KnmB1 [3] (Time 1), 2.6688 µM and 1.0450 µM and 0.7235 µM; in the data set with KnmB1 [3] (Time 2), 3.7942 µM and 2.2669 µM and 1.4470 µM; with KnmB1 [3] (Time 3), 3.7460 µM and 2.5241 µM and 4.3730 µM; with KnmB1 [3] (Time 4), 4.9196 µM and 2.5241 µM and 5.4662 µM; in the data set on KnmB1 [3] (Time 5), 4.7428 µM and 3.0064 µM and 5.6752 µM. For the same molecule, the “NADPH oxidation of KnmB1 … (replicates 1, 2, 3)” value is 5.8360 µM and 3.0064 µM and 8.0225 µM in the data set with KnmB1 [3] (Time 8); 7.2669 µM and 6.4791 µM and 10.8521 µM in the data set on KnmB1 [3] (Time 10); 7.5080 µM and 6.4791 µM and 13.8264 µM in the data set on KnmB1 [3] (Time 15); 10.4502 µM and 12.1865 µM and 17.0257 µM in the data set on KnmB1 [3] (Time 20); 12.4116 µM and 12.1865 µM and 21.2701 µM in the data set with KnmB1 [3] (Time 30); 13.9068 µM and 22.9261 µM and 27.0579 µM in the data set on KnmB1 [3] (Time 40). In addition, in the data set on KnmB1 [3] (Time 60), the “NADPH oxidation of KnmB1 … (replicates 1, 2, 3)” value was 18.0547 µM and 22.9261 µM and 35.3698 µM. In addition, the “NADPH oxidation of KnmB1 in the presence of compound, average value” (“NADPH oxidation of KnmB1 … average value” below) in the data set with KnmB1 [3] (Time 0) came out at 0.0000 µM; in the data set on KnmB1 [3] (Time 1), 1.4791 µM; in the data set on KnmB1 [3] (Time 2), 2.5027 µM; in the data set with KnmB1 [3] (Time 3), 3.5477 µM; in the data set with KnmB1 [3] (Time 4), 4.3033 µM; in the data set with KnmB1 [3] (Time 5) it was 4.4748 µM. Besides, the “NADPH oxidation of KnmB1 … average value” in the data set with KnmB1 [3] (Time 8) amounted to 5.6217 µM; in the data set with KnmB1 [3] (Time 10), 8.1994 µM; in the data set on KnmB1 [3] (Time 15), 9.2712 µM; with KnmB1 [3] (Time 20), 13.2208 µM; in the data set with KnmB1 [3] (Time 30), 15.2894 µM; with KnmB1 [3] (Time 40), 21.2969 µM. In the data set on KnmB1 [3] (Time 60), the “NADPH oxidation of KnmB1 … average value” amounted to 25.4502 µM.
